This is an account of results in patent US20220098620A1, “NOVEL NUCLEIC ACID MODIFIERS” (THE BROAD INSTITUTE, INC., priority 2019, published 2022).

This assay relates to GAPDH locus. The experiment in a line: HiBiT sequence knock-in assay (NanoLuc luciferase complementation). The format is cell-based. An excerpt: FIG. 39A-39E—Schematic of the HiBiT assay to check the HDR-mediated knock-in of the 33-nt DNA fragment. (FIG. 39A) General gRNA and ssODN design strategy for HDR-based HiBiT sequence knock-in right before the stop codon of the gene of interest. (FIG. 39B) The knock-in results in the expression of a fusion protein having a C-terminal HiBiT tag, which is a small fragment of the NanoLuc luciferase. When an excess amount of the other fragment of NanoLuc (LgBiT) is supplied, a fully functional NanoLuc is reconstituted. The resulting luminescence signal is proportional to the HDR efficiency. […]
Applicants then designed an ssODN that would insert a 33-nt DNA fragment (HiBiT sequence) at a gene of interest by HDR pathway (FIG. 39A). […] When complemented by LgBiT, the remainder of NanoLuc, the full-length luciferase is reconstituted to generate a luminescence signal proportional to the degree of ssODN incorporation, providing an easy readout for measuring the level of HDR (FIG. 39B). Applicants chose GAPDH as the first target gene (FIG. 39C) owing to its abundant expression in many cell types, which should allow for the reliable detection of the luminescence signal. […] Using the negative control ssODN without the complementary sequence, Applicants determined if appending the DNA adaptor to the cysteine affected Cas9 activity using the HiBiT insertion assay (FIG. 13b). […]
(In general: The HiBiT peptide binds its large partner to form an active luciferase.)

On to `CCN1CCN(CC(=O)Nc2ccc(-c3cccc4c(=O)cc(N5CCOCC5)oc34)c3sc4ccccc4c23)CC1` [KU-0060648], for which the “HDR enhancement by NHEJ pathway inhibitors in the HiBiT assay” value is listed as “enhanced HDR enhancement”.

In the case of `O=c1cc(N2CCOCC2)oc2c(-c3cccc4c3sc3ccccc34)cccc12` [KU-57788], the “HDR enhancement by NHEJ pathway inhibitors in the HiBiT assay” value is “enhanced HDR enhancement”.
